Assays:
[1] = system: PC9/G cells; assay: MTT cell growth inhibition assay in PC9/G cells; conditions: 72 h; for effect on cell viability when combined with Gef + Res treatment: 3-MA 5 mM or DEVD 10 nM with Gef 1 μM + Res 40 μM
Description: Cell viability was measured by MTT assay. Data are shown as means ± SD of three independent experiments. […] Then, cell viability, apoptosis, autophagy and senescence were detected as described in the Materials and methods. […] Res: Resveratrol; 3-MA: 3-methyladenine; DEVD: Ac-DEVD-CHO. The antiproliferative effects of the treatments were evaluated using the MTT assay. Cells were seeded at a density of 4 × 10^3 cells/well in 96-well plates. […] Then, MTT assays were performed as described previously. […] The different drug doses were combined using constant ratios of the IC50 values calculated from the previous cytotoxicity tests. […] The effects of different drug combinations were evaluated using the CompuSyn software (Biosoft, Ferguson, MO, USA) based on the median effect model of Chou and Talay[43].

[2] = system: PC9/G cells; assay: Annexin V-FITC/PI apoptosis assay by flow cytometry; format: cell-based, human; conditions: Gef 1 μM alone or combined with Res 40 μM, 72 h
Description: (§1) Figure 4 Res enhanced Gef-induced apoptosis, autophagy, G2/M phase cell cycle arrest, and senescence in PC9/G cells. […] (A) Morphological changes in PC9/G cells including nuclei condensation and fragmentation (arrow) were observed by DAPI staining under a fluorescence microscope. (B) Annexin V-FITC/PI staining assay of PC9/G cells was analysed by flow cytometry. (C) Autophagy was detected by MDC staining, and (D) fluorescence intensity was detected by flow cytometry. (E) Cells were stained with PI, and then the DNA content was analysed by flow cytometry. Sub-G1, G1, S and G2/M indicate different cell cycle phases. (F) Cells were stained for SA-β-Gal activity. The percentage of senescent cells in PC9/G cells was measured. Magnification: 200× .
For apoptosis analysis, cells were washed twice with 1× binding buffer then labelled with Annexin V and propidium iodide (PI) following the manufacturer’s instructions. The Apoptosis Analysis Kit was ordered from Tianjin Sungene Biotech (Tianjing, China). For cell cycle analysis, cells were washed twice with ice-cold PBS and fixed with 70% ethanol at −20 °C overnight. […] The analysis of the samples was performed by flow cytometry (Becton-Dickinson, San Jose, CA, USA), and the acquired data were analysed with the CellQuest software (BD Biosciences).

[3] = system: PC9/G cells; assay: SA-β-gal senescence assay; format: cell-based, human; conditions: Gef 1 μM alone or combined with Res 40 μM, 72 h
Description: as §1
Cell senescence was measured following the manufacturer’s protocol of the SA-β-gal assay kit. According to the protocol, cells were fixed with 2% paraformaldehyde for 15 min at room temperature and then incubated with fresh SA-β-gal stain solution in the dark at 37 °C overnight. SA-β-gal-positive cells were quantified by counting stained and unstained cells, and the result is presented as the ratio of SA-β-gal-positive cells over the total cells counted.

[4] = system: PC9 cells; assay: MTT cell growth inhibition assay in PC9 cells; format: cell-based; conditions: Homo sapiens, PC-9, single drug, 72 h
Description: Then, MTT assays were performed as described previously.

[5] = system: HCC827 cells; assay: MTT cell growth inhibition assay in HCC827 cells; format: cell-based; conditions: Homo sapiens
Description: (§2) The antiproliferative effects of the treatments were evaluated using the MTT assay. Cells were seeded at a density of 4 × 10^3 cells/well in 96-well plates. […] Then, MTT assays were performed as described previously.
(§3) are shown as means ± SD of three independent experiments.

[6] = system: HCC827/G cells; assay: MTT cell growth inhibition assay in HCC827/G cells; format: cell-based; conditions: Homo sapiens
Description: as §2, §3

[7] = system: A549 cells; assay: MTT cell growth inhibition assay in A549 cells; format: cell-based; conditions: Homo sapiens
Description: as §2, §3

[8] = system: H1975 cells; assay: MTT cell growth inhibition assay in H1975 cells; format: cell-based; conditions: Homo sapiens, NCI-H1975
Description: as §2, §3

[9] = system: H1299 cells; assay: MTT cell growth inhibition assay in H1299 cells; format: cell-based; conditions: Homo sapiens, NCI-H1299
Description: as §2, §3

In the case of `Cn1cnc(N)c2ncnc1-2` [3-MA, 3-methyladenine], the “effect on cell viability when combined with Gef + Res treatment” value ([1]; PC9/G cells) is reported as “significantly potentiated the reduction of cell viability”.

With `COc1cc2ncnc(Nc3ccc(F)c(Cl)c3)c2cc1OCCCN1CCOCC1` [Gef, Gefitinib] the apoptosis rate [2] was 9.77 ± 2.96 and the “proportion of SA-β-gal-positive cells” value [3] was 11.4 ± 1.6%.

`Oc1ccc(/C=C/c2cc(O)cc(O)c2)cc1` [Res, Resveratrol] was tested, and the IC50 ([1]; Homo sapiens) was 33.9 ± 1.6 µM, the IC50 [4] was 82.5 ± 10 µM and the IC50 [5] was 73.4 ± 4.32 µM. The IC50 [6] was 42.9 ± 3.54 µM, the IC50 [7] was 72.4 ± 2.76 µM and the IC50 [8] was 74.6 ± 2.03 µM. The IC50 [9] was 88.8 ± 1.62 µM.

Ac-DEVD-CHO was tested, and the “toxic effect on cell viability, alone” value ([1]; PC9/G cells, 3-MA 5 mM or DEVD 10 nM alone) was “no toxic effects” and the “effect on cell viability when combined with Gef + Res treatment” value ([1]; PC9/G cells) was “no effect”.

Source: article PMC4669414 (Scientific Reports, 2015)
